The source made the active and inactive calls. How the calls were made is not given here.
Assay: growth inhibition of yeast carrying parasite Hsp90, dose response, anti-malarial Hsp90 inhibitor project, ATP luminescence, 48 h, cherry-picked samples (AID 540268);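 on activity change, negative = inhibition: 0% = neutral control wells and -100% = positive control wells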
Settings: yeast expressing the parasite Hsp90, ATP luminescence; for activity change, negative = inhibition: at 26 µM (top of the series)

CSc1nc2ccc(S(=O)(=O)NC3CCCCC3)cc2s1
AC50: 2.92 µM

Oc1ccc(O)c2c1C1(Cl)C(Cl)=C(Cl)C2(Cl)C1(Cl)Cl
AC50: 3.87 µM

Cc1cccc(CS(=O)(=O)c2ncc(Cl)c(C(=O)Nc3ccc(F)cc3)n2)c1
AC50: 2.92 µM

CCCCCCCCCCCCn1ccc(=N)cc1
AC50: 7.7 µM

O=C(/C=C/c1cccc(Cl)c1)c1ccc([N+](=O)[O-])o1
AC50: 0.84 µM

Cc1ccc(N=Nc2ccc(O)cc2)c(Br)c1
AC50: 8.33 µM

COc1ccc(-c2nnc3n(CCc4ccccc4)c(=O)c4ccccc4n23)c(OC)c1
AC50: 8.97 µM

CCCC(=O)NC(c1ccccc1)c1ccc2cccnc2c1O (stereo not drawn)
AC50: 4.7 µM

CCS(=O)(=O)Nc1cccc(-c2cc(-c3ccccc3)c3cc(C)ccc3n2)c1
AC50: 4.55 µM

CC1=CN2C(=N)/C(=C/c3ccc([N+](=O)[O-])o3)C(=O)N=C2S1
AC50: 1.34 µM

Cc1ccc(S(=O)(=O)Nc2ccc3ccccc3c2[N+](=O)[O-])cc1
AC50: 7.36 µM

Cc1cc(N=Nc2ccc3ccccc3c2)ccc1O
AC50: 2.93 µM

CCCCCCCCCCOC(=O)Cn1c(COc2ccc(C)cc2)[n+](C)c2ccccc21
AC50: 25.8 µM

CC1=C(O)C(=O)C=C2C1=CC=C1C2(C)CCC2(C)C3CC(C)(C(=O)O)CCC3(C)CCC12C (stereo not drawn)
AC50: 1.48 µM

N/C(Cc1ccc(Cl)cc1)=N\OC(=O)c1cccc2ccccc12
AC50: 2.19 µM

O=C(N/N=C/c1ccc([N+](=O)[O-])o1)c1sc2ccccc2c1Cl
activity change, negative = inhibition: 18.4% (inactive)

O=C(NC(c1ccc(Cl)cc1)c1cc(Cl)c2cccnc2c1O)c1cccnc1 (stereo not drawn)
AC50: 24.4 µM

CN(C)c1ccc(-c2cc(O)c3ncccc3c2)cc1
activity change, negative = inhibition: 26.4% (inactive)

CCOC(=O)c1cc2cc(OCc3ccccc3)ccc2nc1C
AC50: 2.97 µM

COc1cc(/C=C2\SC(=S)N(Nc3ncc(C(F)(F)F)cc3Cl)C2=O)ccc1O
AC50: 25.8 µM

CCCc1cc(NCc2ccccn2)n2nc(C)c(-c3ccccc3)c2n1
AC50: 1.29 µM

Cc1ccc(-c2cc(-c3ccc(F)cc3)c(C#N)c(N)n2)o1
activity change, negative = inhibition: 19.7% (inactive)

O=Cc1ccc(O)c2ncccc12
AC50: < 0.195 µM

CCC(=O)OC1(C)C(=O)C2=COC(c3ccc(OC)cc3)=CC2=C(Br)C1=O (stereo not drawn)
AC50: 2.81 µM

Oc1ccc(C=NN=C2c3ccccc3-c3ccccc32)c(O)c1
AC50: 1.86 µM

CC1=CC(C)CC(C)OC(=O)CC(c2ccc(O)cc2)NC(=O)C(Cc2c(Br)[nH]c3ccccc23)N(C)C(=O)C(C)NC(=O)C(C)C1 (stereo not drawn)
AC50: 5.2 µM

COc1ccc(S(=O)(=O)NC2CC3CCC2C3)cc1Cl (stereo not drawn)
AC50: 1.56 µM

COc1cccc(/C=C/c2ccc3cccc(O)c3n2)c1
AC50: < 0.195 µM

O=C(O)/C=C/C(=O)c1ccc2c(c1)CCc1ccccc1-2
AC50: 26.3 µM

CCCCCCCCCCOC(=O)Cn1c(COc2ccc(Cl)cc2)[n+](C)c2ccccc21
AC50: 4.25 µM

O=[N+]([O-])c1cc(Cc2ccccc2)cc(C=Nc2ccc(N3CCOCC3)cc2)c1O
AC50: 3.46 µM

COc1ccc(C(C[N+](=O)[O-])n2nc(C)cc2C)cc1 (stereo not drawn)
AC50: 0.365 µM

Clc1ccc(COC(Cn2ccnc2)c2ccc(Cl)cc2Cl)cc1 (stereo not drawn)
AC50: < 0.195 µM

O=[N+]([O-])c1ccc(O)c(/C=N/Nc2ccccn2)c1
AC50: 3.31 µM

COc1ccc(/C=C/C(=O)c2cc(Br)ccc(=O)c2O)cc1
AC50: 3.21 µM

CCCCNc1nc(N)nc(-c2cc(Cl)ccc2O)n1
AC50: 4.58 µM

Cc1ccc(N2C(=O)C3C4C=CC(CNC(=S)N5CCN(c6ccccc6)CC5)(O4)C3C2=O)cc1 (stereo not drawn)
AC50: 6.93 µM

Cc1ccc(Nc2nc(N)c([N+](=O)[O-])c(N3CCCC(C)C3)n2)cc1C (stereo not drawn)
AC50: 3.73 µM

COc1ccc2oc(=O)c(-c3csc(Nc4cccc(O)c4)n3)cc2c1
AC50: 7.93 µM

CC(C)OC(=O)c1ccc(NCc2cc(O)ccc2O)cc1
AC50: 6.94 µM

O=C(OCn1ncc(Cl)c(Cl)c1=O)c1cccc(C(F)(F)F)c1
AC50: 5.36 µM

CN(C)c1ccc(-n2cccc2/C=C/[N+](=O)[O-])cc1
AC50: 4.83 µM

COCC(=O)n1nc(NCc2ccc(OC)cc2)nc1NCc1ccc(OC)cc1
AC50: 8.06 µM

CCN(CC)S(=O)(=O)c1cccc(NC(=O)c2ccc(Br)cc2)c1
AC50: 5.81 µM

O=C1c2cc(Cl)ccc2-c2c(O)cc(Cl)cc21
AC50: 1.4 µM

Cc1ccc(-c2onc3ccc(C(=O)/C=C/N(C)C)cc23)cc1
AC50: 5.98 µM

O=C(OCC(=O)C12CC3CC(CC(C3)C1)C2)c1ccc(O)cc1
AC50: 1.06 µM

NC(=O)/C=C\C(=O)Nc1cccc(C(F)(F)F)c1
activity change, negative = inhibition: 12.6% (inactive)

OC(Cn1cncn1)(c1ccccc1)c1ccccc1
AC50: 1.57 µM

CCCC(=O)NC(c1ccc(OC)cc1)c1ccc2cccnc2c1O (stereo not drawn)
AC50: 6.15 µM

Cc1ccc(-c2cc(C(=O)N3N=C(C(F)F)CC3(O)C(F)F)c3ccccc3n2)cc1C (stereo not drawn)
AC50: 2.93 µM

CCN1/C(=C/c2ccc3cc(C)ccc3[n+]2CC)Sc2cc(C)c(C)cc21
AC50: 3.25 µM

O=C(CCc1ccccc1)NC(c1cccs1)c1cc(Cl)c2cccnc2c1O (stereo not drawn)
AC50: 15.5 µM

CC(C)(C)c1ccc(-n2nc(C#N)c(Cl)cc2=O)cc1
AC50: 4.31 µM

Cc1ccc(O)c(-c2cc(-c3cccc(Br)c3)n[nH]2)c1
AC50: 4.38 µM

Cc1ccc(-n2nnnc2C(Cl)(Cl)c2nnnn2-c2ccc(C)cc2)cc1
AC50: 1.12 µM

O=C(Nc1nc(-c2ccccn2)cs1)c1ccc(-c2ccccc2F)o1
AC50: 8.88 µM

CCOC(=O)c1sc(-c2ccc(C(F)(F)F)cc2)nc1O
AC50: 2.59 µM

CCCOC(=O)c1ccc(Oc2cn[nH]c2-c2ccc(OCC)cc2O)cc1
AC50: < 0.195 µM

Cc1cc(Cl)ccc1C(=O)C1CCCN(C(=O)c2cncs2)C1 (stereo not drawn)
AC50: 4.62 µM

O=C(O)c1ccc(N/N=C/c2ccc(-c3cccc(Cl)c3)o2)cc1
AC50: 8.69 µM

Clc1ccccc1C(c1ccccc1)(c1ccccc1)n1ccnc1
AC50: < 0.195 µM

Cc1ccc(N=c2ssnc2Cl)cc1
AC50: 3.28 µM

CCn1c(CNc2ccc(Cl)cc2)nnc1SCc1ccc(Cl)cc1
AC50: 4.37 µM

CCN1CCCC1CN(Cc1cc2ccc(C)cc2[nH]c1=O)C(=S)Nc1ccc(F)cc1 (stereo not drawn)
AC50: 3.2 µM

CCCCCCCCCCCCCCCCn1cc[n+](C)c1
AC50: 2.89 µM

O=[N+]([O-])c1cc(Br)c(Nc2ccccc2)c([N+](=O)[O-])c1
AC50: 8.53 µM

Oc1ccc(Cl)cc1/C=C/c1ccc2cccc(O)c2n1
AC50: 2.66 µM

CCOC(=O)C1=C(N)N2C(=O)C(C)SC2=C(C(=O)OC)C1c1ccccc1OC (stereo not drawn)
AC50: 0.706 µM

O=C1S/C(=C\c2ccc(N3CCOCC3)o2)C(=O)N1Cc1c(F)cccc1Cl
AC50: 11.1 µM

Cc1cc(/C=C2\SC(=S)NC2=O)c(C)n1-c1cccc(O)c1
AC50: 8.7 µM

CN1CCN(C(=O)c2cc(COc3c(F)cccc3F)on2)CC1c1ccccc1 (stereo not drawn)
AC50: 0.43 µM

O=C1OC(c2ccccc2)(c2ccc3cc(O)ccc3c2)c2ccccc21 (stereo not drawn)
AC50: 9.13 µM

Cc1cc(-c2cc(-c3ccc(Cl)cc3)nc(N)c2C#N)co1
AC50: 5.34 µM

O=[N+]([O-])c1cc(/C=N/O)ccc1Oc1ccccc1Cl
AC50: 2.86 µM

O=C(/C(=C/O)N=Nc1cccc(C(F)(F)F)c1)c1ccccc1
AC50: 4.14 µM

CCCOc1ccc(N2C(=O)CC(N3CCC(C(=O)OCC)CC3)C2=O)cc1 (stereo not drawn)
AC50: 6.07 µM

CCCC(=O)NC1=C(Cl)C(=O)c2ccccc2C1=O
AC50: < 0.195 µM

Nc1cc2c(cc1[N+](=O)[O-])-c1ccccc1C2=NO
AC50: 8.64 µM

O=C(c1ccc(-c2ccccc2)cc1)C1CCCN(C(=O)c2cncs2)C1 (stereo not drawn)
AC50: 2.72 µM

COc1ccc(N(C(=O)c2ccncc2)S(=O)(=O)c2ccc(Cl)cc2)cc1
AC50: 0.562 µM

COC(=O)/C=C\C(=O)Nc1cccc([N+](=O)[O-])c1
AC50: 2.43 µM

c1cnc2c(c1)ccc1cccnc12
AC50: 6.61 µM

O=c1oc(-c2ccccc2)cc(Cl)c1Cl
AC50: 3.77 µM

O=[N+]([O-])c1ccc2c(c1)-c1ccccc1C2=NO
AC50: 2.72 µM

O=C1OC(c2ccccc2)(c2cc(Br)c(O)c(Br)c2)c2ccccc21 (stereo not drawn)
AC50: 2.97 µM

O=C1Nc2ccc(Br)cc2/C1=C/C(=O)c1ccccc1
AC50: 1.42 µM

COc1ccc2c(c1)[C@H]1[C@H](CO2)[C@H](c2ccccc2)[C@]2(C)C(=O)Nc3ccc(C)cc3C(=O)N12
AC50: 4.75 µM

O=C(c1ccc2c(=O)n(C3CCCC3)c(=S)[nH]c2c1)N1CCc2ccccc21
AC50: 6.25 µM

COc1ccc(O)c(-c2cc(-c3cccc(Br)c3)n[nH]2)c1
AC50: 7.23 µM

CCN1/C(=C/c2ccc3cc(C)cc(C)c3[n+]2CC)Sc2cc(C)ccc21
AC50: 2.91 µM

O=C(/C=C/c1ccccc1)CCN1CCCCC1
AC50: 4.02 µM

COc1ccc2c3c(ccc2c1)C(=O)/C(=C/O)CC3
AC50: 4.29 µM

C=CCn1c(C)cc(C(=O)CSc2nc3ccccc3c(=O)[nH]2)c1C
AC50: 3.28 µM

COc1ccccc1-c1sc2cc3c(cc2c1-c1ccc(O)cc1)OCO3
AC50: 8.2 µM

Cc1sc2nc(C3CC3)nc(SCC(=O)NCc3ccco3)c2c1C
AC50: 7.33 µM

CCCC(=O)NC(c1ccc(Cl)cc1)c1ccc2cccnc2c1O (stereo not drawn)
AC50: 7.47 µM

COC(=O)c1ccc(NC(=O)c2cn(-c3ccccc3)nc2-c2ccncc2)cc1
AC50: 4.08 µM

O=[N+]([O-])c1ccc(S(=O)Cc2ccccc2)c([N+](=O)[O-])c1 (stereo not drawn)
AC50: 2.55 µM

O=C(C1CCN(C2CC(=O)N(c3cccc(Cl)c3)C2=O)CC1)N1CCCC1 (stereo not drawn)
AC50: 3.94 µM

O=C1Nc2ccc(Br)cc2C12NNc1ccccc1O2 (stereo not drawn)
AC50: 1.46 µM

N#C/C(=C/c1ccc(N2CCCCCC2)o1)c1ccc(Cl)cc1
activity change, negative = inhibition: -50.5% (inactive)

C[C@@H]1C[C@@H]([C@H](O)CC2CC(=O)NC(=O)C2)C(=O)[C@@H](C)C1
AC50: < 0.195 µM

O=C(N/N=C/c1ccccn1)c1cc(-c2ccc(Br)cc2)nc2ccccc12
AC50: 5.33 µM

O=C(N/N=C\c1c(O)ccc2ccccc12)c1cncc(Br)c1
AC50: 4.28 µM

CCN(CCO)C1CC(=O)N(c2ccccc2C)C1=O (stereo not drawn)
AC50: 1.26 µM

COc1cc2c(cc1/C=C/[N+](=O)[O-])OCO2
AC50: 3.11 µM

O=C(/C(=C/O)N=Nc1ccccc1)c1ccc(Cl)cc1
AC50: 6.25 µM

COC1CCC(OC2CC(C3(C)CCC4(CC(O)C(C)C(C(C)/C=C(\C)C(=O)C(C)CC(C)C(=O)O)O4)O3)OC3(OC(C4OC(O)(CO)C(C)CC4C)CC3C)C2C)OC1C (stereo not drawn)
AC50: 4.84 µM

CC1=C(C)/C(=N\OS(=O)(=O)c2ccc(C)cc2)C=CC1=O
AC50: 1.22 µM

CCc1ccc(-c2cc(C(=O)N3N=C(C(F)F)CC3(O)C(F)F)c3ccccc3n2)cc1 (stereo not drawn)
AC50: 3.24 µM

O=c1[nH]c(-c2ccccn2)nc(C(F)(F)F)c1Br
AC50: 4 µM

O=C1/C(=C\c2ccc(Cl)cc2)CCC1CNc1ccc(Cl)cc1 (stereo not drawn)
AC50: < 0.195 µM

From PubChem BioAssay AID540268 (Broad Institute, 2011)
